Patent publication US20130040935A1, “CYCLIC KETO-ENOLS FOR THERAPY” (BAYER INTELLECTUAL PROPERTY GMBH, priority 2010, published 2013)
Like-named read-outs stand apart in the source and are kept apart here.

Tests used:
[1] = biological target: human ACC2 (acetyl-coenzyme A carboxylase 2) (Homo sapiens, UniProt O00763); assay: Human ACC2 enzyme assay, Assay B2 (ADP-Glo);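 also: human ACC2 activity read as ADP product, detected by luciferase glow luminescence after residual ATP removal, enzyme near 2 ng/µl in linear range, detection steps at 22 °C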
human ACC2 (acetyl-coenzyme A carboxylase 2), sequence (O00763 27-2458 limits assumed): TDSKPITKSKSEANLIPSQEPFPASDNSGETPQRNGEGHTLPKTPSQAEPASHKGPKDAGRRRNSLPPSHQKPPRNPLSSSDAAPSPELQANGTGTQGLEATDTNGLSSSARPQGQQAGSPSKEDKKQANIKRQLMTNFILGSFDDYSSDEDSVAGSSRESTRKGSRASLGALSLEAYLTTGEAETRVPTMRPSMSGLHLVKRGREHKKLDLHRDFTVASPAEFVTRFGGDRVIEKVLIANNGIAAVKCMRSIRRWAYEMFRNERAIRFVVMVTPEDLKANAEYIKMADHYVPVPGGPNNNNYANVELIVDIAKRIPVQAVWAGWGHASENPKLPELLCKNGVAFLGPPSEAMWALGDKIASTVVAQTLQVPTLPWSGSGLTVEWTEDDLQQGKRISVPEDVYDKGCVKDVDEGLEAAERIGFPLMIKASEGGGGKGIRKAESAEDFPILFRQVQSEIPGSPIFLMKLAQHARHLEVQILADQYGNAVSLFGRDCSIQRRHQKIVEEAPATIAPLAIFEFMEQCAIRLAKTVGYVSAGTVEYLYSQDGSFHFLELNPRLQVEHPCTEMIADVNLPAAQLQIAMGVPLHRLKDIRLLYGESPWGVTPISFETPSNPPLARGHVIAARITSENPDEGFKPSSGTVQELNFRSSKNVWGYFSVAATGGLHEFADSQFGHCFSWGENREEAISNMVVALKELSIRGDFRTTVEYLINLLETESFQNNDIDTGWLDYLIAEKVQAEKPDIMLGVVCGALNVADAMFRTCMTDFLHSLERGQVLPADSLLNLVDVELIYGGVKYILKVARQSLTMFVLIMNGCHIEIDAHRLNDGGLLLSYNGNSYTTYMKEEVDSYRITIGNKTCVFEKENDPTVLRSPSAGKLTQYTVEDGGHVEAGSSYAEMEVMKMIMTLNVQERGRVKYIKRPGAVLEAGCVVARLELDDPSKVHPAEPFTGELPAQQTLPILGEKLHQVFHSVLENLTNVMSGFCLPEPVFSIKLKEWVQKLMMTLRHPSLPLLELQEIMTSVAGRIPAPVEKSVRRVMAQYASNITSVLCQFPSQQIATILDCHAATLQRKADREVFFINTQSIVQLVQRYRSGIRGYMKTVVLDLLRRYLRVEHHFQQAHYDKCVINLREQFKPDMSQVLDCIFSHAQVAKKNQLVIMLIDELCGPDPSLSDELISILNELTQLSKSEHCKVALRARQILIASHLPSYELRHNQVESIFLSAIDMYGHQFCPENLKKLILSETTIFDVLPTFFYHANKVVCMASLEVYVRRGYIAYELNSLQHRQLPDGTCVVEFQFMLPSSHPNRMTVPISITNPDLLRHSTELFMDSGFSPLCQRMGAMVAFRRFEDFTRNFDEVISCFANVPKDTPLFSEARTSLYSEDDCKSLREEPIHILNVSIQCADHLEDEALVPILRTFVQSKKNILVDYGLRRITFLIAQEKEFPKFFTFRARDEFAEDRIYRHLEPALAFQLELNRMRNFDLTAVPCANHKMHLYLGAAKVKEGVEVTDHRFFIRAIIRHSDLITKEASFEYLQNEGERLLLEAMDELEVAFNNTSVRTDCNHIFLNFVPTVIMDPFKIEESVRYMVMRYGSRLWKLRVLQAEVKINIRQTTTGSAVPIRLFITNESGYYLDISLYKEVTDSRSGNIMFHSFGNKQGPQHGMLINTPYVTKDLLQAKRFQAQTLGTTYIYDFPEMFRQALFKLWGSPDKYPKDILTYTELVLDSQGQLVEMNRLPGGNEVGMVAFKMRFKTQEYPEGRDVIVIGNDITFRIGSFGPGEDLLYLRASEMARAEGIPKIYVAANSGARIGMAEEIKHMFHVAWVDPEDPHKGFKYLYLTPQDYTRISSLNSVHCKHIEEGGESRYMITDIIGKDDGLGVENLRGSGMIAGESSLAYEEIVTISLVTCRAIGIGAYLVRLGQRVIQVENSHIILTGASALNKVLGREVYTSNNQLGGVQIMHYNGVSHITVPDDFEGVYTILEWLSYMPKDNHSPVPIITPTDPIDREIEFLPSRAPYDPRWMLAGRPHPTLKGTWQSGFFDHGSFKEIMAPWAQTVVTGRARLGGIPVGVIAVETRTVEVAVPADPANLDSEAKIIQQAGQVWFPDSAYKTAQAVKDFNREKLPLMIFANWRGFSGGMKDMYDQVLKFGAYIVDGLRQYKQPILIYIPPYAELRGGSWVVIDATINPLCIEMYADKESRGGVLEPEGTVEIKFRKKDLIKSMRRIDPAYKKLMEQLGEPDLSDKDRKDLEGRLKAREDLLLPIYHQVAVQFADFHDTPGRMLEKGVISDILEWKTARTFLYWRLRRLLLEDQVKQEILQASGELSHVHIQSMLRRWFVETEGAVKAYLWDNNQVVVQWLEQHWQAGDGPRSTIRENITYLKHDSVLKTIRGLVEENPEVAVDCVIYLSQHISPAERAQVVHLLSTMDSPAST
Description: The hACC2-inhibitory action of the substances of the present invention was measured in the hACC2 assay described in the paragraphs below.
Essentially, the enzyme activity is measured by quantifying the adenosine diphosphate (ADP) formed as a byproduct of the enzyme reactions using the ADP-Glo™ detection system from Promega. In this test, initially the adenosine triphosphate (ATP) not consumed in the enzyme reaction is converted quantitatively with an adenylate cyclase (“ADP-GLO reagent”) into cAMP, the adenylate cyclase is then stopped and (“kinase detection reagent”) the ADP formed is subsequently converted into ATP, which is converted in a luciferase-based reaction into a glow luminescence signal.
The concentration of the hACC2 was adapted to the respective activity of the enzyme and adjusted such that the assay operated in the linear range. Typical concentrations were in the range of 2 ng/μl. […] The amount of light emitted was taken as a measure for the amount of ADP formed and thus for the enzyme activity of the hACC2.

[2] = biological target: T1, human ACC1 (acetyl-coenzyme A carboxylase alpha transcript variant 1) (Homo sapiens, UniProt Q13085); assay: Human ACC1 enzyme assay, Assay B1 (ADP-Glo); type: biochemical
T1 construct: FLAG (C); made in house; host or cells: baculovirus-infected insect cells (Hi5)

[3] = Assay B1, read-out: ACC 1 (=B1) IC50

Row | SMILES | IC50 [2, 3] | IC50 [1] | IC50 [2]
1 | COCCO[C@@H]1CCC[C@]2(C1)NC(=O)C(c1cc(-c3ccc(Cl)cc3)ccc1Cl)=C2O (relative stereo) [1-74, rel-(5R,7R)-3-(4,4′-dichlorobiphenyl-3-yl)-4-hydroxy-7-(2-methoxyethoxy)-1-azaspiro[4.5]dec-3-en-2-one] |  | > 20000 nM | 2420 nM
2 | Cc1ccc(-c2ccc(Cl)cc2)cc1C1=C(O)CN(C(C)C)C1=O [1-17, 3-(4′-chloro-4-methylbiphenyl-3-yl)-4-hydroxy-1-(propan-2-yl)-1,5-dihydro-2H-pyrrol-2-one] |  | 11400 nM | 553 nM
3 | Cc1ccc(-c2ccc(F)cc2)c(C)c1C1=C(O)C2(CCC(OCC(F)(F)F)CC2)NC1=O (stereo not drawn) [1-31, 3-(4′-fluoro-2,4-dimethylbiphenyl-3-yl)-4-hydroxy-8-(2,2,2-trifluoroethoxy)-1-azaspiro[4.5]dec-3-en-2-one] |  | 7890 nM | 811 nM
4 | COCC1(C)NC(=O)C(c2cc(-c3ccc(Cl)cc3)ccc2C)=C1O (stereo not drawn) [1-46, 3-(4′-chloro-4-methylbiphenyl-3-yl)-4-hydroxy-5-(methoxymethyl)-5-methyl-1,5-dihydro-2H-pyrrol-2-one] |  | > 20000 nM | 1130 nM
5 | O=C1NC2(CCC3(CC2)OCCCO3)C(O)=C1c1cc(-c2ccc(Cl)cc2)ccc1Cl [1-58, 3-(4,4′-dichlorobiphenyl-3-yl)-4-hydroxy-9,13-dioxa-1-azadispiro[4.2.5.2]pentadec-3-en-2-one] |  | 19900 nM | 434 nM
6 | Cc1ccc(-c2ccc(Cl)cc2)cc1C1=C(O)C2(CCC3(CC2)OCCCO3)NC1=O [1-59, 3-(4′-chloro-4-methylbiphenyl-3-yl)-4-hydroxy-9,13-dioxa-1-azadispiro[4.2.5.2]pentadec-3-en-2-one] |  | 11600 nM | 261 nM
7 | Cc1ccc(-c2ccc(Cl)cc2)cc1C1=C(O)C2(CCC3(CC2)OCCO3)NC1=O [1-60, 11-(4′-chloro-4-methylbiphenyl-3-yl)-12-hydroxy-1,4-dioxa-9-azadispiro[4.2.4.2]tetradec-11-en-10-one] |  | 5990 nM | 189 nM
8 | O=C1NC2(CCC3(CC2)OCCO3)C(O)=C1c1cc(-c2ccc(Cl)cc2)ccc1Cl [1-61, 11-(4,4′-dichlorobiphenyl-3-yl)-12-hydroxy-1,4-dioxa-9-azadispiro[4.2.4.2]tetradec-11-en-10-one] |  | 9040 nM | 88 nM
9 | Cc1ccc(-c2ccc(Cl)cc2)cc1C1=C(O)C2(CCC3(CC2)OCC(C)O3)NC1=O (stereo not drawn) [1-63, 11-(4′-chloro-4-methylbiphenyl-3-yl)-12-hydroxy-2-methyl-1,4-dioxa-9-azadispiro[4.2.4.2]tetradec-11-en-10-one] |  | 7270 nM | 277 nM
10 | Cc1ccc(-c2ccc(Cl)cc2)cc1C1=C(O)C2(CCC3(CC2)OC(C)C(C)O3)NC1=O (stereo not drawn) [1-64, 11-(4′-chloro-4-methylbiphenyl-3-yl)-12-hydroxy-2,3-dimethyl-1,4-dioxa-9-azadispiro[4.2.4.2]tetradec-11-en-10-one] |  | > 20000 nM | 571 nM
11 | Cc1ccc(-c2ccc(Cl)cc2)cc1C1=C(O)C2(CCC3(CC2)OCC(C)CO3)NC1=O (stereo not drawn) [1-66, 3-(4′-chloro-4-methylbiphenyl-3-yl)-4-hydroxy-11-methyl-9,13-dioxa-1-azadispiro[4.2.5.2]pentadec-3-en-2-one] |  | 3130 nM | 493 nM
12 | CC1COC2(CCC3(CC2)NC(=O)C(c2cc(-c4ccc(Cl)cc4)ccc2Cl)=C3O)O1 (stereo not drawn) [1-68, 11-(4,4′-dichlorobiphenyl-3-yl)-12-hydroxy-2-methyl-1,4-dioxa-9-azadispiro[4.2.4.2]tetradec-11-en-10-one] |  | 5900 nM | 547 nM
13 | Cc1ccc(-c2ccc(Cl)cc2)c(C)c1C1=C(O)C2(CCC3(CC2)OCCO3)NC1=O [1-70, 11-(4′-chloro-2,4-dimethylbiphenyl-3-yl)-12-hydroxy-1,4-dioxa-9-azadispiro[4.2.4.2]tetradec-11-en-10-one] |  | 2920 nM | 286 nM
14 | COC1CCCC2(C1)NC(=O)C(c1c(C)ccc(-c3ccc(Cl)cc3)c1C)=C2O (stereo not drawn) [1-72, 3-(4′-chloro-2,4-dimethylbiphenyl-3-yl)-4-hydroxy-7-methoxy-1-azaspiro[4.5]dec-3-en-2-one] |  | 14900 nM | 1140 nM
15 | CCOC1CCC2(CC1)NC(=O)C(c1c(C)cc(C)c(-c3ccc(Cl)cc3)c1C)=C2O (stereo not drawn) [1-75, 3-(4′-chloro-2,4,6-trimethylbiphenyl-3-yl)-8-ethoxy-4-hydroxy-1-azaspiro[4.5]dec-3-en-2-one] |  | 803 nM | 5680 nM
16 | COC1CCC2(CC1)NC(=O)C(c1cc(-c3ccc(Cl)c(Cl)c3)ccc1C)=C2O (stereo not drawn) [1-81, 3-(3′,4′-dichloro-4-methylbiphenyl-3-yl)-4-hydroxy-8-methoxy-1-azaspiro[4.5]dec-3-en-2-one] |  | 2610 nM | 
17 | CC1(C)OC(=O)C(c2cc(-c3ccc(Cl)cc3)ccc2Cl)=C(O)C1(C)C [10-1, 3-(4,4′-dichlorobiphenyl-3-yl)-4-hydroxy-5,5,6,6-tetramethyl-5,6-dihydro-2H-pyran-2-one] |  |  | 1070 nM
18 | Cc1ccc(-c2ccc(Cl)cc2)cc1C1=C(O)C(C)(C)C(C)(C)OC1=O [10-2, 3-(4′-chloro-4-methylbiphenyl-3-yl)-4-hydroxy-5,5,6,6-tetramethyl-5,6-dihydro-2H-pyran-2-one] |  |  | 760 nM

Now from value to compound, other results behind:

Row | IC50 [2, 3] | SMILES | IC50 [1] | IC50 [2]
19 | 11800 nM | CCOCCO[C@@H]1CC[C@@]2(C1)NC(=O)C(c1cc(-c3ccc(Cl)cc3)ccc1C)=C2O (relative stereo) [1-50, rel-(5R,7S)-3-(4′-chloro-4-methylbiphenyl-3-yl)-7-(2-ethoxyethoxy)-4-hydroxy-1-azaspiro[4.4]non-3-en-2-one] | > 20000 nM | 
20 | 982 nM | Cc1ccc(-c2ccc(Cl)cc2)cc1C1=C(O)CN(C2CC2)C1=O [1-18, 3-(4′-chloro-4-methylbiphenyl-3-yl)-1-cyclopropyl-4-hydroxy-1,5-dihydro-2H-pyrrol-2-one] | 16400 nM | 
21 | 532 nM | Cc1ccc(-c2ccc(Cl)cc2)cc1C1=C(O)C(C)N(C(C)C)C1=O (stereo not drawn) [1-19, 3-(4′-chloro-4-methylbiphenyl-3-yl)-4-hydroxy-5-methyl-1-(propan-2-yl)-1,5-dihydro-2H-pyrrol-2-one] | ≥ 20000 nM | 
22 | 288 nM | Cc1ccc(-c2ccc(Cl)cc2)cc1C1=C(O)C2(Cc3ccccc3C2)NC1=O [1-25, 4′-(4′-chloro-4-methylbiphenyl-3-yl)-3′-hydroxy-1,3-dihydrospiro[inden-2,2′-pyrrol]-5′(1′H)-one] | 3780 nM | 
23 | 438 nM | CCOC1CCC2(CC1)NC(=O)C(c1cc(-c3ccc(Cl)cc3)ccc1C)=C2O (stereo not drawn) [1-28, 3-(4′-chloro-4-methylbiphenyl-3-yl)-8-ethoxy-4-hydroxy-1-azaspiro[4.5]dec-3-en-2-one] | 2110 nM | 
24 | 1320 nM | Cc1ccc(-c2ccc(F)cc2)c(C)c1C1=C(O)C2(CCCCC2)NC1=O [1-40, 3-(4′-fluoro-2,4-dimethylbiphenyl-3-yl)-4-hydroxy-1-azaspiro[4.5]dec-3-en-2-one] | > 20000 nM | 
25 | 924 nM | COCCC1CCCC2(C1)NC(=O)C(c1c(C)ccc(-c3ccc(Cl)cc3)c1C)=C2O (stereo not drawn) [1-55, 3-(4′-chloro-2,4-dimethylbiphenyl-3-yl)-4-hydroxy-7-(2-methoxyethyl)-1-azaspiro[4.5]dec-3-en-2-one] | 3290 nM | 
26 | 385 nM | Cc1ccc(-c2ccc(Cl)cc2)c(C)c1C1=C(O)C2(CCC3(CC2)OCC(C)O3)NC1=O (stereo not drawn) [1-62, 11-(4′-chloro-2,4-dimethylbiphenyl-3-yl)-12-hydroxy-2-methyl-1,4-dioxa-9-azadispiro[4.2.4.2]tetradec-11-en-10-one] | 5740 nM | 
27 | 1160 nM | CC1(C)COC2(CCC3(CC2)NC(=O)C(c2cc(-c4ccc(Cl)cc4)ccc2Cl)=C3O)OC1 [1-65, 3-(4,4′-dichlorobiphenyl-3-yl)-4-hydroxy-11,11-dimethyl-9,13-dioxa-1-azadispiro[4.2.5.2]pentadec-3-en-2-one] | 14700 nM | 
28 | 918 nM | Cc1ccc(-c2ccc(Cl)cc2)cc1C1=C(O)C2(CCC3(CC2)OCC(C)(C)CO3)NC1=O [1-67, 3-(4′-chloro-4-methylbiphenyl-3-yl)-4-hydroxy-11,11-dimethyl-9,13-dioxa-1-azadispiro[4.2.5.2]pentadec-3-en-2-one] | 5200 nM | 
29 | 838 nM | CC1COC2(CCC3(CC2)NC(=O)C(c2cc(-c4ccc(Cl)cc4)ccc2Cl)=C3O)OC1 (stereo not drawn) [1-69, 3-(4,4′-dichlorobiphenyl-3-yl)-4-hydroxy-11-methyl-9,13-dioxa-1-azadispiro[4.2.5.2]pentadec-3-en-2-one] | > 20000 nM | 
30 | 563 nM | CCOC1CCCC2(C1)NC(=O)C(c1c(C)ccc(-c3ccc(Cl)cc3)c1C)=C2O (stereo not drawn) [1-73, 3-(4′-chloro-2,4-dimethylbiphenyl-3-yl)-7-ethoxy-4-hydroxy-1-azaspiro[4.5]dec-3-en-2-one] | > 20000 nM | 
31 | 958 nM | Cc1ccc(-c2ccc(Cl)cc2)cc1C1=C(O)C(C)(C(C)C)NC1=O (stereo not drawn) [1-78, 3-(4′-chloro-4-methylbiphenyl-3-yl)-4-hydroxy-5-methyl-5-(propan-2-yl)-1,5-dihydro-2H-pyrrol-2-one] | 8120 nM | 
32 | 661 nM | Cc1ccc(-c2ccc(Cl)cc2)cc1-c1c(O)c2ccccc2[nH]c1=O [9-5, 3-(4′-chloro-4-methylbiphenyl-3-yl)-4-hydroxyquinolin-2(1H)-one] |  | 
33 | 174 nM | Cc1ccc(-c2ccc(Cl)cc2)cc1-c1c(O)c2ccc(F)cc2[nH]c1=O [9-8, 3-(4′-chloro-4-methylbiphenyl-3-yl)-7-fluoro-4-hydroxyquinolin-2(1H)-one] |  | 
34 | 2940 nM | Cc1ccc(-c2ccc(F)cc2)cc1-c1c(O)c2ccc(F)cc2[nH]c1=O [9-9, 7 fluoro-3-(4′-fluoro-4-methylbiphenyl-3-yl)-4-hydroxyquinolin-2(1H)-one] |  | 
35 | 1410 nM | Cc1ccc(-c2ccc(C(F)(F)F)cc2)cc1-c1c(O)c2ccc(F)cc2[nH]c1=O [9-10] |  | 
